From publication PMC9944867, “Mechanistic in vitro studies indicate that the clinical drug–drug interactions between protease inhibitors and rosuvastatin are driven by inhibition of intestinal BCRP and hepatic OATP1B1 with minimal contribution from OATP1B3, NTCP and OAT3” (Pharmacology Research & Perspectives, 2023)
Where “and” joins values, the source holds several entries; their conditions need not be identical. Equal values may be shown once. Entries after “also recorded” stand apart in the source; their conditions may differ. Where a name gives a salt, the structure may show the parent alone. Read-outs that look alike come from different tables or passages of the source. Marks after values point to notes of the source that are not given here. One block for each compound: values may come before it.

Experiments:
[1] = Pharmacokinetic parameters of protease inhibitors in clinical interaction studies with rosuvastatin; settings: calculated, clinical dose of Table 5
[2] = read-out: [Cmax] mean steady-state maximum plasma concentration, total drug, cited from earlier work
human OAT3 (SLC22A8) = target: T1, human OAT3 (SLC22A8) (Homo sapiens, UniProt Q8TCC7); assay: OAT3 single concentration inhibition screen in HEK293 cells; type: cell-based; settings: ≥10x unbound [Cmax]: atazanavir 15 μM, darunavir 10 μM, lopinavir 3 μM, ritonavir 0.1 μM; probe 1 μM
T1 construct: host or cells: HEK293 TransportoCells
T1 sequence (Q8TCC7 1-542): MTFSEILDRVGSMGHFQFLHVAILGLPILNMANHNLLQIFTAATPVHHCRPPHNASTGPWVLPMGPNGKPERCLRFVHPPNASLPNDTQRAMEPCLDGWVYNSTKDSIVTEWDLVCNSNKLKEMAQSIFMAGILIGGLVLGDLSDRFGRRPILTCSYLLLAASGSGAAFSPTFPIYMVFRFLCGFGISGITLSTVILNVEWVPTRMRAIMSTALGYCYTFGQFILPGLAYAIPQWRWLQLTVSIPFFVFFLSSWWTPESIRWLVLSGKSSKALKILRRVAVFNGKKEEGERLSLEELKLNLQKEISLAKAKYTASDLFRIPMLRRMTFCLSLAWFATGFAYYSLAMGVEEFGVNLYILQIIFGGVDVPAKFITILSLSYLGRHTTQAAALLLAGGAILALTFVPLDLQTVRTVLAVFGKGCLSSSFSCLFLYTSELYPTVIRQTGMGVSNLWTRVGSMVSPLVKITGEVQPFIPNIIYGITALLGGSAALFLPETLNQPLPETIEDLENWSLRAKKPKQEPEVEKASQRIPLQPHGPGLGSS

OAT3 [3] = target: T2, OAT3 (Homo sapiens, UniProt Q8TCC7); assay: as above; type: cell-based; settings: human, HEK293 cells expressing OAT3 (with vector control cells), pH 7.4, probe [3H]-estrone 3-sulfate (1 μM); probenecid 300 μM; single concentration screens; read-out: Inhibition of OAT3 by positive control (mean), screen
T2 construct: host or cells: HEK293 TransportoCells
T2 sequence (Q8TCC7 1-542): T1 sequence (Q8TCC7 1-542)

BCRP [4] = test system: BCRP; parameters: method as in PMID 21612343; settings: ref [17]; cited from earlier work
[5] = cited from earlier work
OATP1B1 = target: T3, OATP1B1 (Homo sapiens, UniProt Q9Y6L6); assay: OATP1B1 inhibition in transporter-expressing HEK293 cells, [3H]-estradiol 17β-D-glucuronide uptake (IC50 determination); settings: human, HEK293 cells expressing OATP1B1 (with vector control cells), pH 7.4, probe [3H]-estradiol 17β-D-glucuronide (0.02 μM)
T3 sequence (Q9Y6L6 1-691): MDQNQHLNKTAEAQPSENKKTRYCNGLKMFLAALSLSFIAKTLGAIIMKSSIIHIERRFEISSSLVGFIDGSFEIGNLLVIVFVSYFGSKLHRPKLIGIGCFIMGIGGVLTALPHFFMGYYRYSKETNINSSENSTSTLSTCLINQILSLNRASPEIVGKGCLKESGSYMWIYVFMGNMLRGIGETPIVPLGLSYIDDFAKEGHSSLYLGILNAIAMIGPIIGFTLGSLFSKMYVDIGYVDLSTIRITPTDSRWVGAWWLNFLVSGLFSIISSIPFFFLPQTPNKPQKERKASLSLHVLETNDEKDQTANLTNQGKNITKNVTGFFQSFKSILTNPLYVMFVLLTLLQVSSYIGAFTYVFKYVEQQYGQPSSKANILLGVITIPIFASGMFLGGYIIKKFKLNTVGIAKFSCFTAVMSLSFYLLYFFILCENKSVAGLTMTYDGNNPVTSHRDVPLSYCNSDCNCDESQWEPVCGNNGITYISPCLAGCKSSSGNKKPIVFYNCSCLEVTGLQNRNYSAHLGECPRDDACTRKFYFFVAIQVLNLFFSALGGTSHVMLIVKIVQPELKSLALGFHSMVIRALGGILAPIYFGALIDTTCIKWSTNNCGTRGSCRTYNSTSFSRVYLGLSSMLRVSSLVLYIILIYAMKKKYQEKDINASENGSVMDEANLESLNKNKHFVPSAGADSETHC
Procedure: (§1) OATP1B1, OATP1B3, NTCP and vector control cell lines were cultured and subsequent transporter assays conducted as described above using the same transporter‐specific probe substrates and incubation times. For OATP1B1, the probe substrate was [^3H]‐estradiol 17β‐D‐glucuronide (0.02 μM) incubated for 2 min, with rifamycin SV (100 μM) as positive control inhibitor. For IC50 determinations, the only difference to the method performed above was that the 15‐min pre‐incubation step contained a range of six concentrations of protease inhibitor drug, and subsequent incubations were conducted with the same six concentration levels of drug rather than with a single concentration.

BCRP [6] = target: T4, BCRP (Homo sapiens, UniProt Q9UNQ0); assay: Caco-2 unidirectional (B-A) BCRP inhibition assay, [3H]-estrone 3-sulfate transport (IC50 determination)
T4 sequence (Q9UNQ0 1-655): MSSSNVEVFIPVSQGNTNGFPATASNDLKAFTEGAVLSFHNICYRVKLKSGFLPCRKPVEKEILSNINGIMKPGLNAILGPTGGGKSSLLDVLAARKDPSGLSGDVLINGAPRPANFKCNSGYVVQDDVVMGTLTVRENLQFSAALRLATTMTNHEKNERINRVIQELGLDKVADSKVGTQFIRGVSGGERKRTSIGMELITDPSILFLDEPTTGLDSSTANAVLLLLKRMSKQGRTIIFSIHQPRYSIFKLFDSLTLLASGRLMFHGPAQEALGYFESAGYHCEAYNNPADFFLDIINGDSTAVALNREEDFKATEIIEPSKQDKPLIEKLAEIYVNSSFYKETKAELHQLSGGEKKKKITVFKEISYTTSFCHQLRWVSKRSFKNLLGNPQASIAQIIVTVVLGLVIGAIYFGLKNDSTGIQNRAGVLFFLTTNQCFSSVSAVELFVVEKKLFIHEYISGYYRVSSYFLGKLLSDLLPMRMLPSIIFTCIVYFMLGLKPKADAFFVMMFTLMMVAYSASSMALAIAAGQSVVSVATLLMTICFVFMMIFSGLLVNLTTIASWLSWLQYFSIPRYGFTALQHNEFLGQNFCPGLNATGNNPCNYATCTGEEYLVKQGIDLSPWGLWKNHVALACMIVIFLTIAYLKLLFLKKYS
Procedure: The methodology used was adapted from the previously validated Caco‐2 unidirectional (basolateral to apical; B‐A) BCRP inhibition assay.[13]
The BCRP inhibition experiments were performed between day 18 to 22 post‐seeding. […] After pre‐incubation, transport buffer was removed and the appropriate donor solutions were added to the basolateral donor compartment. […] Receiver solutions (final DMSO concentration of ≤1 % v/v) in transport buffer containing either the corresponding concentration of test inhibitor or DMSO (vehicle control), and the fluorescent cell monolayer integrity marker lucifer yellow (100 μM), were added to the apical compartments (total volume = 90 μL). Incubations were conducted in triplicate wells per assay condition in a heated incubator at 37°C for 90 min. Following the incubation, the amount (pmol) of [^3H]‐estrone 3‐sulfate appearing in the receiver compartment was determined by sampling (50 μL) into a white walled clear bottomed multiwell plate, to which scintillation fluid (200 μL) was added, and then samples counted on a Microbeta2 liquid scintillation counter (PerkinElmer). The quantified amount (derived from disintegrations per minute; DPM) of [^3H]‐estrone 3‐sulfate was subsequently converted to concentration (pmol/mL) and used to calculate apparent permeability (Papp), as described previously.[18]

human OATP1B1 (SLCO1B1) = target: T5, human OATP1B1 (SLCO1B1) (Homo sapiens, UniProt Q9Y6L6); assay: OATP1B1 inhibition in transporter-expressing HEK293 cells, [3H]-estradiol 17β-D-glucuronide uptake (IC50 determination); settings: OATP1B1-mediated transport of [3H]-estradiol 17β-D-glucuronide (0.02 μM), HEK293
T5 sequence (Q9Y6L6 1-691): T3 sequence (Q9Y6L6 1-691)
Procedure: as §1

[7] = human, in vivo
human NTCP (SLC10A1) = target: T6, human NTCP (SLC10A1) (Homo sapiens, UniProt Q14973); assay: NTCP single concentration inhibition screen in HEK293 cells; type: cell-based; settings: ≥10x [Iin max u]: atazanavir 50 μM, darunavir 15 μM, lopinavir 5 μM, ritonavir 0.3 μM; [3H]-taurocholic acid 1 μM
T6 construct: host or cells: HEK293 TransportoCells
T6 sequence (Q14973 1-349): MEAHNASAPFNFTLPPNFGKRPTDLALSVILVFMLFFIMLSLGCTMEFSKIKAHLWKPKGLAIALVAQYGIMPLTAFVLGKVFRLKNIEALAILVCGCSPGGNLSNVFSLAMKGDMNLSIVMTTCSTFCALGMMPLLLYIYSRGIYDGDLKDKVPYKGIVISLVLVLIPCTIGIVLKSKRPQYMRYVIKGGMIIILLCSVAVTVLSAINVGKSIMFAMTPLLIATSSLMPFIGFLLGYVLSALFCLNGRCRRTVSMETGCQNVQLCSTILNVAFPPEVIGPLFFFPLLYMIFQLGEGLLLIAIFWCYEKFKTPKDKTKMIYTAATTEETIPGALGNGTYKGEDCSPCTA

OAT3 [8] = test system: OAT3; parameters: method as in Yoshida et al.[32]; settings: up to 10 μM; ref Yoshida et al.[32]; cited from earlier work

- [Ig] maximal enterocyte concentration ([1]; (FaFg × ka × dose)/Qent): 1.39 ^f μM
- [Iin max u] unbound maximum hepatic inlet concentration [1]: 0.0131 µM
- [Iin max] maximum hepatic inlet concentration [1]: 1.19 ^f μM
Structure (SMILES): CC(C)c1nc(CN(C)C(=O)N[C@H](C(=O)N[C@@H](Cc2ccccc2)C[C@H](O)[C@H](Cc2ccccc2)NC(=O)OCc2cncs2)C(C)C)cs1 [ritonavir]
- Cmax ([2]; clinical dose of Table 5, ref Elsby et al.[1]): 0.93 µM
- Inhibition of OAT3-mediated [3H]-estrone 3-sulfate transport, single concentration screen (human OAT3 (SLC22A8)): neither atazanavir, darunavir, lopinavir nor ritonavir inhibited OAT3 transport

- inhibition at 3 min, 300 μM (OAT3 [3]): 90.6%
Structure (SMILES): CCCN(CCC)S(=O)(=O)c1ccc(C(=O)O)cc1 [probenecid]

Structure (SMILES): C[C@]12CC[C@@H]3c4ccc(OS(=O)(=O)O)cc4CC[C@H]3[C@@H]1CCC2=O [estrone 3‐sulfate, Estrone 3‐sulfate sodium salt]
- Km (BCRP [4]): 7.4 µM

Structure (SMILES): CC(C)c1nc(N(C)S(C)(=O)=O)nc(-c2ccc(F)cc2)c1/C=C/[C@@H](O)C[C@@H](O)CC(=O)O [rosuvastatin]
- OAT3 ƒe ([5]; active renal secretion, ref [1]): 0.25
- OATP1B1 ƒe ([5]; hepatic uptake, ref [1]): 0.38
- fraction absorbed ([5]; intestinal BCRP efflux as barrier to absorption, ref [1]): 0.5
- BCRP ƒe ([5]; intestinal BCRP efflux, ref [1]): 0.5
- NTCP ƒe ([5]; ref [13]): 0.21
- OATP1B3 ƒe ([5]; ref [13]): 0.11
- overall hepatic elimination ƒe ([5]; ref [13]): 0.7

- inhibition at 2 min, 100 μM (OATP1B1): 96.5 ± 3.2%
Structure (SMILES): CO[C@H]1/C=C/O[C@@]2(C)Oc3c(C)c(O)c4c(O)c(cc(O)c4c3C2=O)NC(=O)/C(C)=C\C=C\[C@H](C)[C@H](O)[C@@H](C)[C@@H](O)[C@@H](C)[C@H](OC(C)=O)[C@@H]1C [rifamycin SV, rifamycin SV sodium salt]

Structure (SMILES): CC(C)CN(C[C@@H](O)[C@H](Cc1ccccc1)NC(=O)O[C@H]1CO[C@H]2OCC[C@H]21)S(=O)(=O)c1ccc(N)cc1 [darunavir]
- IC50 (BCRP [6]): 126 µM and 154 µM and 148 µM
- IC50 (BCRP [6]; IC50 mean (BCRP), BCRP-mediated B-A transport of [3H]-estrone 3-sulfate (1 μM), Caco-2, mean (±SD) of occasions, IC50 equates to Ki): 143 µM
- IC50 (human OATP1B1 (SLCO1B1); IC50, determined values from different occasions (OATP1B1), single occasion): 12.4 µM and 7.89 µM and 8.29 µM
- IC50 (human OATP1B1 (SLCO1B1); IC50 mean (OATP1B1), mean (±SD) of three occasions): 9.53 µM
- [Ig] maximal enterocyte concentration [7]: 73.0 ^b μM
- [Iin max] maximum hepatic inlet concentration [7]: 24.2 ^b μM
- Inhibition of NTCP-mediated probe substrate transport, single concentration screen (human NTCP (SLC10A1)): neither darunavir nor ritonavir when tested at a single concentration greater than or equal to ten times their [Iin max u] produced inhibition; also recorded: not an inhibitor
- [Iin max u] unbound maximum hepatic inlet concentration [1]: 1.21 µM
- Inhibition of OAT3, published (OAT3 [8]): no inhibition
- Cmax ([2]; 600 mg, ref Kakuda et al.[36]): 10.6 µM
